In EPA's ToxValDB 9.5:

How the values were obtained:
Mus musculus [1] = tested on: Mus musculus
Canidae [2] = details: oral, diet, Beagle
Rattus norvegicus [3] = details: for LD50 / LC50: acute
Canidae [4] = details: chronic, oral, diet, Dog Other
Canidae [5] = details: chronic, oral, diet, M/F, Dog Other
Mus musculus [6] = details: repeat dose other; oral
Oryctolagus sp. [7] = details: dermal; for LD50: acute
Cavia porcellus = details: acute; inhalation; Guinea Pig
Mus musculus [8] = details: uterotrophic; duration: 3 days; injection; intraperitoneal; Active
Oryctolagus sp. [9] = details: subchronic; inhalation; M; New Zealand White / Sprague-Dawley; testicular effects
Rattus norvegicus [10] = details: subchronic, oral, Fischer 344
Mus musculus [11] = details: short-term, inhalation, M, immunological
[12] = duration: 2 years, reduced body weight gain, increased liver and kidney weight, and rbc cholinesterase inhibition
[13] = subchronic, duration: 90 days, oral, diet, B6C3F1
[14] = reproduction developmental, duration: 21 days, New Zealand
[15] = reproduction developmental, duration: 10 days, oral, gavage, F, Crl:CD(SD)
[16] = reproduction developmental, duration: 28 days, oral, diet
[17] = subchronic, duration: 90 days, oral, diet, Sprague-Dawley
[18] = reproduction developmental, duration: 6 days, inhalation, Crl: CFW(SW)Br, Charles River Laboratories, generation: F1
[19] = reproduction developmental, inhalation, M, CD1
[20] = duration: 1 years, kidney and liver toxicity

Work on `CCC(CC)C(C)COC(=O)c1ccccc1C(=O)OCC(C)C(CC)CC` (stereo not drawn) [Di-C7-9-branched and linear alkyl phthalates] yielded an LD50 (Mus musculus [1]; acute, oral) of over 26000 mg/kg, an NOAEL (Canidae [2]; chronic, duration: 14 weeks) of 100 mg/kg-day and an LD50 (Rattus norvegicus [3]; oral) of over 22000 mg/kg. The “NOAEL (% diet)” value (Rattus norvegicus [3]; reproduction developmental, oral, diet, Sprague-Dawley, generation: F0) was 1, the “NOAEL (% diet)” value (Rattus norvegicus [3]; reproduction developmental, oral, diet, Sprague-Dawley, generation: F1) was 1 and the NOAEL (Rattus norvegicus [3]; short-term, duration: 4 weeks, oral, diet) was 100 mg/kg-day.

`COP(=O)(OC)O/C(=C/Cl)c1cc(Cl)c(Cl)cc1Cl` [Tetrachlorovinphos] gave an NOEL (Canidae [4]; duration: 2 years, Kidney: Increased weight + Liver: Increased weight) of 3.1 mg/kg-day, an LEL (Canidae [5]; [12]) of 50 mg/kg-day and an NOEL (Canidae [5]; [12]) of 3.13 mg/kg-day.

`[Hg+2].[S-2]` [Mercury sulfide (HgS)] was tested, and the NOAEL (Mus musculus [6]) was 13.2 mg/kg-day.

Work on `CC(C)(C)c1cc(CCC(=O)OCC(COC(=O)CCc2cc(C(C)(C)C)c(O)c(C(C)(C)C)c2)(COC(=O)CCc2cc(C(C)(C)C)c(O)c(C(C)(C)C)c2)COC(=O)CCc2cc(C(C)(C)C)c(O)c(C(C)(C)C)c2)cc(C(C)(C)C)c1O` [Irganox 1010] yielded an NOAEL (Mus musculus [1]; developmental, duration: 10 days, oral, gavage) of 1000 mg/kg-day, an NOAEL (Mus musculus [1]; developmental, duration: 10 days, oral, gavage, NMRI) of 1000 mg/kg-day and an NOAEL (Mus musculus [1]; reproduction developmental, duration: 10 days, oral, gavage, F) of 1000 mg/kg-day. It also gave an NOAEL (Canidae [2]; subchronic, duration: 3 months) of 322 mg/kg-day, an LD50 (Oryctolagus sp. [7]) of over 3160 mg/kg and an LC50 (Rattus norvegicus [3]; inhalation) of over 1.96 µg/mL. The LD50 (Rattus norvegicus [3]; oral) was over 5000 mg/kg, the NOAEL (Rattus norvegicus [3]; developmental, duration: 10 days, oral, gavage, Sprague-Dawley) was 1000 mg/kg-day and the NOAEL (Rattus norvegicus [3]; reproduction developmental, duration: 10 months, oral, diet, generation: F0) was 10000 ppm. It also gave an NOAEL (Rattus norvegicus [3]; reproduction developmental, duration: 10 months, oral, diet, generation: F1) of 10000 ppm, an NOAEL (Rattus norvegicus [3]; reproduction developmental, duration: 10 months, oral, diet, generation: F2) of 10000 ppm and an NOAEL (Rattus norvegicus [3]; subchronic, duration: 3 months, oral, diet, Sprague-Dawley) of 2500 mg/kg-day.

`CCOP(=S)(OCC)SCSC(C)(C)C` [Terbufos] gave an NOAEL (Canidae [4]; duration: 6 months, Cholinesterase: Inhibition) of 0.0025 mg/kg-day.

`CC(C)(c1cc(Br)c(O)c(Br)c1)c1cc(Br)c(O)c(Br)c1` [3,3',5,5'-Tetrabromobisphenol A] showed an LC50 (Mus musculus [1]; acute, inhalation, NMDI) of over 50 µg/mL, an LOAEL (Mus musculus [1]; [13]) of 3070 mg/kg-day and an NOAEL (Mus musculus [1]; [13]) of 965 mg/kg-day. For the same compound, the LC50 (Cavia porcellus) was over 50 µg/mL, the LD50 (Oryctolagus sp. [7]; New Zealand) was over 2000 mg/kg and the LOAEL (Oryctolagus sp. [7]; [14]) was over 2500 mg/kg-day. For the same compound, the NOAEL (Oryctolagus sp. [7]; [14]) was 2500 mg/kg-day, the LC50 (Rattus norvegicus [3]; inhalation) was over 28200 mg/m3 and the LC50 (Rattus norvegicus [3]; inhalation, Wistar) was over 50 µg/mL. It also gave an LD50 (Rattus norvegicus [3]; oral, gavage, Sprague-Dawley) of over 5000 mg/kg, an NOAEL (Rattus norvegicus [3]; developmental, duration: 19 days, oral, gavage) of 1000 mg/kg-day and an LOAEL (Rattus norvegicus [3]; developmental, duration: 19 days, oral, gavage, Wistar) of over 2500 mg/kg-day. For the same compound, the NOAEL (Rattus norvegicus [3]; developmental, duration: 20 days, oral, Wistar) was 2500 mg/kg-day, the LOAEL (Rattus norvegicus [3]; [15]) was 5000 mg/kg-day and the NOAEL (Rattus norvegicus [3]; [15]) was 3000 mg/kg-day. For the same compound, the LOAEL (Rattus norvegicus [3]; reproduction developmental, duration: 14 days, inhalation) was 6 mg/L, the LOAEL (Rattus norvegicus [3]; reproduction developmental, duration: 19 days, oral, gavage, F) was over 1000 mg/kg-day and the NOAEL (Rattus norvegicus [3]; reproduction developmental, duration: 20 days, oral, gavage, F, Sprague-Dawley) was 1000 mg/kg-day. The LOAEC (Rattus norvegicus [3]; [16]) was over 1000 ppm, the NOAEL (Rattus norvegicus [3]; [16]) was at least 1000 ppm and the LOAEL (Rattus norvegicus [3]; reproduction developmental, oral, gavage, Sprague-Dawley, generation: F0) was 1000 mg/kg-day. It also gave an LOAEL (Rattus norvegicus [3]; [17]) of over 100 mg/kg-day, an NOAEL (Rattus norvegicus [3]; [17]) of over 100 mg/kg-day and an NOAEL (Rattus norvegicus [3]; subchronic, duration: 90 days, oral, gavage, Sprague-Dawley) of 1000 mg/kg-day. The LEL (Mus musculus [8]) was 20 mg/kg-day.

Work on `COCCO` [2-Methoxyethanol] yielded an LOAEL (Oryctolagus sp. [9]) of 311 mg/m3, an NOAEL (Oryctolagus sp. [9]) of 93 mg/m3 and an NOEL (Rattus norvegicus [10]; drinking water, F, Deaths + Clinical Observation: Tremors Diarrhea Emaciation Abnormal posture Pallor Tachypnea Comatose state + Body Weight Changes: decrease…) of 70 mg/kg-day. It also gave an NOEL (Rattus norvegicus [10]; drinking water, M/F, Deaths + Clinical Observation: Tremors Diarrhea Emaciation Abnormal posture Pallor Tachypnea Comatose state + Body Weight Changes: decrease…) of under 114 mg/kg-day.

Compound `c1ccccc1` [Benzene] has an LOAEL (Mus musculus [1]; repeat dose other, inhalation, CD1) of 31.9 mg/m3, an LOAEL (Mus musculus [1]; [18]) of 63.9 mg/m3 and an NOAEL (Mus musculus [1]; [18]) of 31.9 mg/m3. For the same compound, the NOAEL (Mus musculus [1]; reproduction developmental, duration: 6 days, inhalation, F, Crl: CFW(SW)Br, Charles River Laboratories) was 63.9 mg/m3, the LOAEL (Mus musculus [1]; reproduction developmental, inhalation, F, CD1) was 958 mg/m3 and the LOAEL (Mus musculus [1]; [19]) was 958 mg/m3. The NOAEL (Mus musculus [1]; [19]) was 95.8 mg/m3, the LC50 (Rattus norvegicus [3]; inhalation, Sprague-Dawley) was 43800 mg/m3 and the LOAEL (Mus musculus [11]; duration: 6 days, whole body, C57BL/6) was 32.6 mg/m3. It also gave an LOAEL (Mus musculus [11]; duration: 20 days, C57Bl/6) of 31.9 mg/m3, an LOAEL (Mus musculus [6]) of 264 mg/kg-day and an NOAEL (Mus musculus [6]) of 26.4 mg/kg-day. The NOEL (Rattus norvegicus [10]; duration: 13 weeks, gavage, M/F, Deaths + Body Weight Changes: decrease + Hematology: WBC decrease, Lympho decrease + Histopathology: Spleen-B-cell depletion Spleen-…) was under 25 mg/kg-day.

For `Cc1cc(Cl)ccc1OCC(=O)O` [2-(4-Chloro-2-methylphenoxy)acetic acid], the NOEL (Canidae [4]; duration: 52 weeks, Kidney: Effects + Liver: Effects) was 0.15 mg/kg-day, the LEL (Canidae [5]; [20]) was 0.75 mg/kg-day and the NOEL (Canidae [5]; [20]) was 0.15 mg/kg-day.
